The numbers were not newly measured in patent EP1939174A1, “Inclusion complex of ezetimibe and a cyclodextrin and processes in the preparation thereof” (LEK Pharmaceuticals d.d., priority 2006, dated 2008), which cites them from elsewhere.

`O=C1[C@H](CC[C@H](O)c2ccc(F)cc2)[C@@H](c2ccc(O)cc2)N1c1ccc(F)cc1` [Ezetimibe, 1-4(fluorophenyl)-3-(R)-[3-(4-fluorophenyl)-3-(S)-hydroxypropyl]-4-(S)-(4-hydroxyphenyl)-2-azetidinone]: the “solubility in alcohols and acetone” value (in alcohols and acetone) was “freely soluble”. Also, the solubility in water result (in water) is recorded as “practically insoluble”.
